Source: ChEMBL document CHEMBL3817753, “Neurosteroid-like Inhibitors of N-Methyl-d-aspartate Receptor: Substituted 2-Sulfates and 2-Hemisuccinates of Perhydrophenanthrene” (J Med Chem, 2016)

Tests used:
[1] = biological target: Glutamate NMDA receptor; Grin1/Grin2b (Rattus norvegicus, UniProt P35439+Q00960); test: Inhibition of recombinant rat GluN1a/GluN2B co-expressed in HEK293 cells assessed as suppression of glutamate-induced current by patch-clamp method; format: cell-based
[2] = biological target: Glutamate NMDA receptor; Grin1/Grin2a (Rattus norvegicus, UniProt P35439+Q00959); test: Inhibition of recombinant rat GluN1a/GluN2A co-expressed in HEK293 cells assessed as suppression of glutamate-induced current by patch-clamp method; format: cell-based
[3] = biological target: Glutamate NMDA receptor; Grin1/Grin2c (Rattus norvegicus, UniProt P35439+Q00961); test: Inhibition of recombinant rat GluN1a/GluN2C co-expressed in HEK293 cells assessed as suppression of glutamate-induced current by patch-clamp method; format: cell-based
Chain of Glutamate NMDA receptor; Grin1/Grin2c (Q00961 whole entry, other chains not shown): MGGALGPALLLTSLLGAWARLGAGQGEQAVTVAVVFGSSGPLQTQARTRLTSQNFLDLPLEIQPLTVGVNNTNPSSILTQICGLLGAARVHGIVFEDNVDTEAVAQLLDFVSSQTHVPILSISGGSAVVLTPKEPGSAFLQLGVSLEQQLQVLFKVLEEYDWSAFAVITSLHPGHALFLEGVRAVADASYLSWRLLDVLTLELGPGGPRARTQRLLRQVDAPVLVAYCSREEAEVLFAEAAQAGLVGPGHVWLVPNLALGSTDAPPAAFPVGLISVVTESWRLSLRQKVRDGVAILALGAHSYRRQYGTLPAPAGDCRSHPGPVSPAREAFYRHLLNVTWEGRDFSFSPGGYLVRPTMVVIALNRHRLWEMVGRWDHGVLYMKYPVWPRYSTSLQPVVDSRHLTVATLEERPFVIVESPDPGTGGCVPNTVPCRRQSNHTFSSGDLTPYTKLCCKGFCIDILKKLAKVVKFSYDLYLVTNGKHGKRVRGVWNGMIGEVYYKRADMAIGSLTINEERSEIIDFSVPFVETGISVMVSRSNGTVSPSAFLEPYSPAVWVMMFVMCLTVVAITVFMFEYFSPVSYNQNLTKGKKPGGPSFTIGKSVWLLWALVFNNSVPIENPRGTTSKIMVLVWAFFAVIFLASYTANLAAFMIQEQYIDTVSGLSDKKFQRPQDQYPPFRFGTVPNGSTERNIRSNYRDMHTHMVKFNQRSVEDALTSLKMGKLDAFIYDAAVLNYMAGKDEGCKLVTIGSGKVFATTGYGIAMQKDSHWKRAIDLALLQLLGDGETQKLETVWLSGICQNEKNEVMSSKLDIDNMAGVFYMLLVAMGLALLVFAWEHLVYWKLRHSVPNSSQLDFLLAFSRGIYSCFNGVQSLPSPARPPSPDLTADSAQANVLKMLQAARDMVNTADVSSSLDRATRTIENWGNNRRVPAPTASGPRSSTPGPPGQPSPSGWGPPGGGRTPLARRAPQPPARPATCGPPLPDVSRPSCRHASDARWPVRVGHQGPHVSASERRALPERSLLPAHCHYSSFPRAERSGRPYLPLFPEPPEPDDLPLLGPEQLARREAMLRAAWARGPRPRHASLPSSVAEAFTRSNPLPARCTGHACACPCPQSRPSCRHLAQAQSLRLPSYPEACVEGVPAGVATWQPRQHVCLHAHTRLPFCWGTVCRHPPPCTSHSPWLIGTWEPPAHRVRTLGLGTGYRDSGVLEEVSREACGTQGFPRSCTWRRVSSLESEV

[4] = Inhibition of NMDAR in rat hippocampal neurons assessed as suppression of NMDA-induced current by whole-cell patch-clamp method; format: tissue-based; settings: Hippocampus
[5] = Inhibition of AMPAR in rat hippocampal neurons assessed as suppression of AMPA-induced current by whole-cell patch-clamp method; format: tissue-based; settings: Hippocampus
[6] = Inhibition of GABAR in rat hippocampal neurons assessed as suppression of GABA-induced current by whole-cell patch-clamp method; format: tissue-based; settings: Hippocampus
[7] = biological target: Ionotropic glutamate receptor NMDA 1/2D (Rattus norvegicus, UniProt P35439+Q62645); test: Inhibition of recombinant rat GluN1a/GluN2D co-expressed in HEK293 cells assessed as suppression of glutamate-induced current by patch-clamp method; format: cell-based
Chain of Ionotropic glutamate receptor NMDA 1/2D (Q62645 whole entry, other chains not shown): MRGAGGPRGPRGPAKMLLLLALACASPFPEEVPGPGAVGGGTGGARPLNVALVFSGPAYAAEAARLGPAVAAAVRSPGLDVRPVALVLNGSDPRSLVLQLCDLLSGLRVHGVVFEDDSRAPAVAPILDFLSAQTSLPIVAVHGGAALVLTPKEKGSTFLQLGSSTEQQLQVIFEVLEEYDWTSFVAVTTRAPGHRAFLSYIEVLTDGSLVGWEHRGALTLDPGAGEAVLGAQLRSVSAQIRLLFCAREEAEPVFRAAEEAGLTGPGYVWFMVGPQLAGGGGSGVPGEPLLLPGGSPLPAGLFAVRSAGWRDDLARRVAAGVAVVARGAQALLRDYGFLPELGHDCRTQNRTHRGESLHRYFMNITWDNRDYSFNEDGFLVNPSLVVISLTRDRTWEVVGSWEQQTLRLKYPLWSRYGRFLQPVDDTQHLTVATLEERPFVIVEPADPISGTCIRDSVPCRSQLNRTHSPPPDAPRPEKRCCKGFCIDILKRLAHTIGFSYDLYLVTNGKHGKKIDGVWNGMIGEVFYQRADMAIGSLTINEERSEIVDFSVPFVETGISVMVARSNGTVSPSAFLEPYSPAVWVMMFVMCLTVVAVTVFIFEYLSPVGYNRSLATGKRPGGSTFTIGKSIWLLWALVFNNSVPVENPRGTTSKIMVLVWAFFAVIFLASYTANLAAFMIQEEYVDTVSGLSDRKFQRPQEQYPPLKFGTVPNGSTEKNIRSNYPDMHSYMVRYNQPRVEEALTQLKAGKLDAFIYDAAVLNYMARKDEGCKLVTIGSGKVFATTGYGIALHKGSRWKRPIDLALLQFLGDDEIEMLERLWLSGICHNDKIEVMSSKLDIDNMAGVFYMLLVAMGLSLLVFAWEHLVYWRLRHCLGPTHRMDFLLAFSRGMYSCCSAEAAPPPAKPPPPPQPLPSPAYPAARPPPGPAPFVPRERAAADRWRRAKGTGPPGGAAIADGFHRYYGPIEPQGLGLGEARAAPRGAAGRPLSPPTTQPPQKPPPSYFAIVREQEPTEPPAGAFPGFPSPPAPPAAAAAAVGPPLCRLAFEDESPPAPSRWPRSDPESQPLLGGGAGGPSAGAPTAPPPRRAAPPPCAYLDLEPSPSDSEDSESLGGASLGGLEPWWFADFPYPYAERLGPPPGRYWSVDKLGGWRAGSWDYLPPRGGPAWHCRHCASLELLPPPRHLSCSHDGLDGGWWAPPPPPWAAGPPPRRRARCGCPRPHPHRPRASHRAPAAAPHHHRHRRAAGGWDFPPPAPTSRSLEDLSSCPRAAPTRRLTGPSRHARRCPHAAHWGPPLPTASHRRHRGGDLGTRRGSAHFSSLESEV

Chain of Glutamate NMDA receptor; Grin1/Grin2b (Q00960 whole entry, other chains not shown): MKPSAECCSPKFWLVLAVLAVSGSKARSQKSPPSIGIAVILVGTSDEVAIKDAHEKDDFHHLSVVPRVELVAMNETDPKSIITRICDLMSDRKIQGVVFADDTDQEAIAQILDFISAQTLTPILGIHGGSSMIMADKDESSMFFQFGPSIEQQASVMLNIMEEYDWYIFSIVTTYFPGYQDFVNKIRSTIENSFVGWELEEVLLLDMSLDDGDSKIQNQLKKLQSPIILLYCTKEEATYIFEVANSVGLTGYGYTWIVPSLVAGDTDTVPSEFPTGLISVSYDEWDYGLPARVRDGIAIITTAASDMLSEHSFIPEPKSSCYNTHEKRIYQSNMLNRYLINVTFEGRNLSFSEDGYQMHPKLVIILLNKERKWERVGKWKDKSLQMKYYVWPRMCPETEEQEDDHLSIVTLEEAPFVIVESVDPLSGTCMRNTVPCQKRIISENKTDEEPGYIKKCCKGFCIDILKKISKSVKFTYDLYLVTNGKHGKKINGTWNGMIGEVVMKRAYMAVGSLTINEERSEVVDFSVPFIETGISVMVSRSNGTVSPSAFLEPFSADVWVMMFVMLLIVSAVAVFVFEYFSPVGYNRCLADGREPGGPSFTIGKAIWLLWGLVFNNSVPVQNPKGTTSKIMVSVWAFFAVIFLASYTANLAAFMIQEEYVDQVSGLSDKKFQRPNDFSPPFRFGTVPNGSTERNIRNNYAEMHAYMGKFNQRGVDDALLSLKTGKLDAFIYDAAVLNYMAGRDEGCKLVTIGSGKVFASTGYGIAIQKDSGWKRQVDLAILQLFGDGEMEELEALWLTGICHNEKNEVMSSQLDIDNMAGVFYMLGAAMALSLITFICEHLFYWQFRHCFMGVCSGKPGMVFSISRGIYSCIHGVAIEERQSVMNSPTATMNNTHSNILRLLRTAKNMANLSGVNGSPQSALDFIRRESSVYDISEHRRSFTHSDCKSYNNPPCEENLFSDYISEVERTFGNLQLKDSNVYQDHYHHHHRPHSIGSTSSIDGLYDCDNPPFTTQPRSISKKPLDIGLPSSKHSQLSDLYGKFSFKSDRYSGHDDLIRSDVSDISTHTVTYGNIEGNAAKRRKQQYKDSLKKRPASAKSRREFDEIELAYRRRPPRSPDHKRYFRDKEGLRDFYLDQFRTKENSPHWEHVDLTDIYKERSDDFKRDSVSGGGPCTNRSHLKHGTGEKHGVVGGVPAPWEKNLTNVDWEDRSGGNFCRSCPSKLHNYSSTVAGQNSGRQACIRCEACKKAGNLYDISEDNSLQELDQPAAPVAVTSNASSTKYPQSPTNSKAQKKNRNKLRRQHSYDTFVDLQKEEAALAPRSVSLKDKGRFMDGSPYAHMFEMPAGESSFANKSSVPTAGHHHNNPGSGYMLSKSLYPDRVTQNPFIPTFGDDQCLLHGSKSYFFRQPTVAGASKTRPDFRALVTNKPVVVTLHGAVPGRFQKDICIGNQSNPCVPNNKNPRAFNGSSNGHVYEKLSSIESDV

COC(=O)[C@@]1(C)CC[C@H]2[C@@H](CC[C@@H]3C[C@H](OC(=O)CCC(=O)O)CC[C@@]32C)[C@@H]1C
IC50 [1]: 63.4 µM

COC[C@@]1(C)CC[C@H]2[C@@H](CC[C@@H]3C[C@H](OC(=O)CCC(=O)O)CC[C@@]32C)C1
IC50 [1]: 33.3 µM

C[C@@H]1CC[C@H]2[C@@H](CC[C@@H]3C[C@H](OS(=O)(=O)O)CC[C@@]32C)C1.c1ccncc1
IC50 [2]: 10.9 µM
IC50 [1]: 15.6 µM
IC50 [3]: 11.1 µM
IC50 [4]: 13.7 µM
IC50 [5]: 83 µM
IC50 [6]: 3.1 µM
IC50 [7]: 8.1 µM

COC(=O)[C@@]1(C)CC[C@H]2[C@@H](CC[C@@H]3C[C@H](OS(=O)(=O)O)CC[C@@]32C)[C@@H]1C.c1ccncc1
IC50 [1]: 74.6 µM

COC[C@@]1(C)CC[C@H]2[C@@H](CC[C@@H]3C[C@H](OC(=O)CCC(=O)O)CC[C@@]32C)[C@@H]1C
IC50 [1]: 29.2 µM

COC(=O)[C@@]1(C)CC[C@H]2[C@@H](CC[C@@H]3C[C@H](OC(=O)CCC(=O)O)CC[C@@]32C)C1
IC50 [1]: 87.6 µM

COC[C@@]1(C)CC[C@H]2[C@@H](CC[C@@H]3C[C@H](OS(=O)(=O)O)CC[C@@]32C)C1.c1ccncc1
IC50 [1]: 77 µM
